Measured values: patent US9393228B2, “Combination of a slow sodium current blocker and a sinus If current inhibitor, and the pharmaceutical compositions containing said combination” (PIERRE FABRE MEDICAMENT, priority 2013, dated 2016)
Structures can show the parent of a compound that is named as a salt.

Test system: anesthetized rabbits
Assay: ST segment elevation by occlusion of the circumflex coronary artery in anesthetized rabbits (anti-ischemic activity, with blood pressure and heart rate)
Type: in vivo, rabbit
Details: for Heart rate / Mean blood pressure: 5 minutes after i.v. administration; for Heart rate / Mean blood pressure / effect on heart rate (in words): compound B 0.63 mg/kg; for effect on ST segment elevation (in words): i.v. slow bolus, compound A 0.04 mg/kg or compound B 0.63 mg/kg, 5 min before 5 min circumflex occlusion
Procedure: The anti-ischemic activity of 3-(R)-[3-(2-methoxyphenylthio)-2-(S)-methyl-propyl]amino-3,4-dihydro-2H-1,5-benzoxathiepine combined with ivabradine was evaluated in a model of ST segment elevation by occlusion of the circumflex coronary artery in anesthetized rabbits.
Male rabbits (2.2-2.5 kg) are anesthetized with pentobarbital. A catheter is placed in a carotid artery in order to continuously measure the animal's blood pressure. Blood samples are taken in order to regularly check blood gases and to modify ventilation parameters as needed. The compounds to be tested or the carriers are administered via a catheter placed in an ear vein. An electrocardiogram is recorded, also continuously, in configuration II in order to determine the variations of amplitude of the ST segment. The animal's thorax is opened and a ligature is placed around the left coronary artery (circumflex) in order to induce regional myocardial ischemia (Verscheure et al., 1995). After a period of stabilization of all hemodynamic parameters, the compounds are administered in a slow bolus (1 minute). Five minutes after the compounds are administered, the circumflex artery is occluded for 5 minutes and then the ligature is released. The heart is removed and the risk area (ligatured region of the circumflex artery) is evaluated. Four groups of rabbits are studied: • group receiving carrier: 40% polyethylene 300, 60% physiological saline; • group receiving 3-(R)-[3-(2-methoxyphenylthio)-2-(S)-methyl-propyl]amino-3,4-dihydro-2H-1,5-benzoxathiepine (compound A) at a dose of 0.04 mg/kg; • group receiving ivabradine hydrochloride (compound B) at a dose of 0.63 mg/kg; • group receiving compound A (0.04 mg/kg)+compound B (0.63 mg/kg).
The doses were selected in order to have submaximal pharmacological activities and thus to uncover potential additive or synergistic effects.

With `COc1ccccc1SC[C@@H](C)CN[C@@H]1COc2ccccc2SC1` [Compound A, 3-(R)-[3-(2-methoxyphenylthio)-2-(S)-methyl-propyl]amino-3,4-dihydro-2H-1,5-benzoxathiepine] the Heart rate (compound A 0.04 mg/kg) was 275 ± 10 bpm, the Mean blood pressure (compound A 0.04 mg/kg) was 92 ± 4 mmHg and the “effect on ST segment elevation (in words)” value was “slight inhibition”. The “effect on blood pressure (in words)” value (i.v., compound A 0.04 mg/kg) was “without changing” and the “effect on heart rate (in words)” value (i.v., compound A 0.04 mg/kg) was “without changing”.

In the case of `COc1cc2c(cc1OC)CC(=O)N(CCCN(C)C[C@H]1Cc3cc(OC)c(OC)cc31)CC2` [Compound B, ivabradine hydrochloride, reference compound], the Heart rate (compound A 0.04 mg/kg) is reported as 211 ± 10 bpm, the Mean blood pressure (compound A 0.04 mg/kg) is reported as 92 ± 3 mmHg and the “effect on ST segment elevation (in words)” value is reported as “lower ST segment elevation”. The “effect on heart rate (in words)” value (i.v., compound A 0.04 mg/kg) was “relatively significant and constant bradycardia”.
